{"source": "patent US20250387355A1", "about": "(SpringWorks Therapeutics Inc., priority 2024, published 2025)", "test_system": "NF1-associated plexiform neurofibromas (PNs)", "experiment": "Phase 2b trial of mirdametinib: efficacy by volumetric MRI per REiNS criteria (BICR)", "assay_type": "in vivo, human", "settings": "for DoR ≥12 months, %: responders, first DoR line (r12)", "description": "Study treatment was administered orally at a twice daily (BID) dose specified in the table below. Dosing was on a 28-day Cycle (4-week course) with a 3 week on/1 week off schedule. The treatment period will last for up to 24 Cycles followed by a 30-day Safety Follow-Up period.\nA partial response was defined as PN decrease ≥20% compared to baseline using centrally read MRI volumetric analysis.\nThe major efficacy outcome measure was confirmed objective response rate (ORR), defined as the percentage of patients with complete response (disappearance of the target PN) or confirmed partial response (≥20% reduction in PN volume confirmed at a subsequent tumor assessment within 2-6 months during the 24-cycle treatment phase). Responses were assessed by blinded independent central review (BICR) using volumetric magnetic resonance imaging (MRI) analysis per Response Evaluation in Neurofibromatosis and Schwannomatosis (REiNS) criteria. A secondary efficacy objective was to determine the duration of response for patients who achieved a confirmed objective response.", "data": [{"smiles": "O=C(NOC[C@H](O)CO)c1ccc(F)c(F)c1Nc1ccc(I)cc1F", "note": "(single isomer, unassigned) [mirdametinib]", "values": [{"measurement": "Confirmed Complete Response, n (%)", "setting": "Adult (N = 58)", "value": 0}, {"measurement": "Confirmed Objective Response Rate per REINS criteria by BICR, (%)", "setting": "Adult (N = 58)", "value": "(41) %"}, {"measurement": "Confirmed Partial Response, (%)", "setting": "Adult (N = 58)", "value": "(41) %"}, {"measurement": "DoR ≥12 months, %", "setting": "Adult", "value": "(88%)"}, {"measurement": "Confirmed Complete Response, n (%)", "setting": "Pediatric (N = 56)", "value": 0}, {"measurement": "Confirmed Objective Response Rate per REINS criteria by BICR, (%)", "setting": "Pediatric (N = 56)", "value": "(52) %"}, {"measurement": "Confirmed Partial Response, (%)", "setting": "Pediatric (N = 56)", "value": "(52) %"}, {"measurement": "DoR ≥12 months, %", "setting": "Pediatric", "value": "(90%)"}]}]}
